Patent publication US20160279187A1, “CALPAIN INHIBITORS FOR IBD AND COLORECTAL CANCER TREATMENT” (UNIVERSITY OF HAWAII, priority 2013, published 2016)
Where a SMILES comes first, the peptide text is derived from it. The star is where a group is joined. Cbz = O=C(OCc1ccccc1)*; CH2F = FC*

Tests used:
[1] = test system: HT-29 human colorectal cancer cells; assay: proliferation assay (MTS), HT-29; assay type: cell-based; conditions: HT-29, 20 μg/ml, vs DMSO
Experimental: (§1) Bone marrow derived macrophages (BMDM) were prepared as previously described by methods known to those skilled in the art. On day 5 of culture, 2×10^6 BMDM were seeded in 6-well plates and the following day were primed for 18 h with TNFα (20 ng/mL), followed by 1 h stimulation with E. faecalis (1 μg/mL; ATCC). Stimulation with E. faecalis was conducted in the presence of the zLLY-CH2F calpain-2 inhibitor (20 μg/mL) or DMSO as a control. Media was removed from treated BMDM, centrifuged at 300×g for 5 min and supernatent analyzed using the Cytometric Bead Array Mouse Inflammation Kit (BD Biosciences, San Jose, Calif.). Cytokine data were analyzed using Flowjo software (Ashland, Oreg.) and GraphPad Prism version 4.0 (GraphPad, La Jolla, Calif.). Cell pellets were lysed and analyzed for IκB and NFκB by Western blot as previously described (Miyazaki, T. et al. Journal of Atherosclerosis and Thrombosis 20, 228-237, 2013). […] Each day 4 wells were quantified using Celltiter MTS reagent (Promega) and the resulting signal was used to generate a proliferation curve. Calpain activity was measured using a Calpain activity assay kit (BioVision, Inc., Milpitas, Calif.) as previously described. Colons were harvested on day 4 and calpain activity measured. […]

[2] = biological target: T1, M-Calpain activity in CT-26 WT cells (Mus musculus, UniProt O08529); assay: Calpain Activity Assay Kit (BioVision), CT-26.WT; assay type: cell-based; conditions: vs DMSO, 1 hour
T1 construct: endogenous in cells; host or cells: CT-26.WT mouse colon cancer cells
T1 sequence (O08529 20-700 limits assumed): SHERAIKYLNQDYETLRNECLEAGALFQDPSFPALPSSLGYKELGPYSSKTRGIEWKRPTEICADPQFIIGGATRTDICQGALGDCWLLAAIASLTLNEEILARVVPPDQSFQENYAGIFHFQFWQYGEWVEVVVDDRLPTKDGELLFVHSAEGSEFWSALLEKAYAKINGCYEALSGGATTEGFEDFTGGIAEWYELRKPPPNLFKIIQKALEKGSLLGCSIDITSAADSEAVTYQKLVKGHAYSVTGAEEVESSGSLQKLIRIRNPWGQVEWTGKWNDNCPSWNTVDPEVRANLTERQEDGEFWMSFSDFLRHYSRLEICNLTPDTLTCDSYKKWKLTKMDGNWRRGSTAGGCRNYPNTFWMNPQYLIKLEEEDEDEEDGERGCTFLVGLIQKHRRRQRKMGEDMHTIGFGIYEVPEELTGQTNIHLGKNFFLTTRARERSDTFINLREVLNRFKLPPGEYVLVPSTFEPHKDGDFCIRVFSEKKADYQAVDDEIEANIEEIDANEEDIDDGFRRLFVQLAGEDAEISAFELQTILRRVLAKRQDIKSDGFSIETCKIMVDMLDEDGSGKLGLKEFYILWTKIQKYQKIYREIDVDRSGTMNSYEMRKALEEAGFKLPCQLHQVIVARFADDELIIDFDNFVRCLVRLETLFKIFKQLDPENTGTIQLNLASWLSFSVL
T1 sequence (O88456 1-268 partner): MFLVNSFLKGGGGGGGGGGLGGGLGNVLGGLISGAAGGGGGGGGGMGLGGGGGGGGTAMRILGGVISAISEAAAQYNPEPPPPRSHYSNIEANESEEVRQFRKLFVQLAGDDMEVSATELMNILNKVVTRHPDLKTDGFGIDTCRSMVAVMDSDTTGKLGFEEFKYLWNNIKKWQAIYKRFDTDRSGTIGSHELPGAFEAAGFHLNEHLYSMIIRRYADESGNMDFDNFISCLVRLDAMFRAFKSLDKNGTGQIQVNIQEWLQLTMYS
Experimental: as §1

In the case of `CC(C)C[C@H](NC(=O)OCc1ccccc1)C(=O)N[C@@H](CC(C)C)C(=O)N[C@@H](Cc1ccc(O)cc1)C(=O)CF` [zLLY-CH2F, Z-LLY-CH2F] (Cbz-Leu-Leu-Tyr-CH2F), the proliferation [1] is reported as “reduction” and the M-Calpain activity [2] is reported as “reduced”.
